Data published in PubChem BioAssay (NCI).
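Following 48 hours of exposure in 96-well plates, responses at five concentrations were used to interpolate endpoints linearly. Abbreviation: GI50, concentration required for 50% inhibition of growth. TGI: concentration producing complete growth inhibition.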

Legend:
Assay in all cases: inhibition of tumour cell growth, NCI panel, 48 h
UO-31 renal = tested on: UO-31 renal
MOLT-4 leukemia = tested on: MOLT-4 leukemia
HT29 colon = tested on: HT29 colon
NCI-H460 lung = tested on: NCI-H460 lung
K-562 leukemia = tested on: K-562 leukemia
A498 renal = tested on: A498 renal
786-0 renal = tested on: 786-0 renal
SF-295 CNS = tested on: SF-295 CNS
KM12 colon = tested on: KM12 colon
HOP-92 NSCLC = tested on: HOP-92 NSCLC

C=C1C(=O)O[C@H]2[C@H]1CC/C(COC(=O)NCCc1cccc(OC)c1)=C\CC[C@@]1(C)O[C@@H]21
GI50 (UO-31 renal): 1390 nM | TGI (UO-31 renal): 2.86 µM | GI50 (MOLT-4 leukemia): 2.09 µM | TGI (MOLT-4 leukemia): 5 µM | GI50 (HT29 colon): 1140 nM | TGI (HT29 colon): 2.88 µM | GI50 (NCI-H460 lung): 3.94 µM | TGI (NCI-H460 lung): 16.6 µM | GI50 (K-562 leukemia): 613 nM | TGI (K-562 leukemia): 6.25 µM | GI50 (A498 renal): 2350 nM | TGI (A498 renal): 7.76 µM | GI50 (786-0 renal): 1370 nM | TGI (786-0 renal): 3.07 µM | GI50 (SF-295 CNS): 7260 nM | TGI (SF-295 CNS): 20.4 µM | GI50 (KM12 colon): 4270 nM | TGI (KM12 colon): 15.6 µM | GI50 (HOP-92 NSCLC): 1840 nM | TGI (HOP-92 NSCLC): 3.96 µM

CCCCCCCCCCOC(=O)c1cc[n+](C)cc1
TGI (UO-31 renal): 30.3 µM | TGI (MOLT-4 leukemia): 37.5 µM | TGI (HT29 colon): 31.1 µM | TGI (NCI-H460 lung): 38.8 µM | TGI (K-562 leukemia): 34.2 µM | TGI (A498 renal): 36.9 µM | TGI (786-0 renal): 31.7 µM | TGI (SF-295 CNS): 30.3 µM | TGI (KM12 colon): 31.3 µM | TGI (HOP-92 NSCLC): 29.2 µM

COc1ccc(-c2nn3ncccc3c2-c2ccnc(Nc3ccc4c(c3)OCCO4)n2)cc1
GI50 (UO-31 renal): 2190 nM | TGI (UO-31 renal): 16.7 µM | GI50 (MOLT-4 leukemia): 14.2 µM | TGI (MOLT-4 leukemia): > 25 µM | GI50 (HT29 colon): 4290 nM | TGI (HT29 colon): > 23.8 µM | GI50 (NCI-H460 lung): 8.74 µM | TGI (NCI-H460 lung): > 25 µM | GI50 (K-562 leukemia): 9060 nM | TGI (K-562 leukemia): > 25 µM | GI50 (A498 renal): 3690 nM | TGI (A498 renal): 22.1 µM | GI50 (786-0 renal): 8380 nM | TGI (786-0 renal): > 25 µM | GI50 (SF-295 CNS): > 17200 nM | TGI (SF-295 CNS): > 25 µM | GI50 (KM12 colon): 5990 nM | TGI (KM12 colon): > 25 µM | GI50 (HOP-92 NSCLC): 521 nM | TGI (HOP-92 NSCLC): 10.6 µM

Cn1cncc1-c1c(F)cncc1NC(=O)c1c(N)nn2cc(F)cnc12
GI50 (UO-31 renal): 303 nM | TGI (UO-31 renal): 60.5 µM | GI50 (MOLT-4 leukemia): 0.203 µM | TGI (MOLT-4 leukemia): 1.1 µM | GI50 (HT29 colon): 3610 nM | TGI (HT29 colon): > 100 µM | GI50 (NCI-H460 lung): 1.27 µM | TGI (NCI-H460 lung): > 100 µM | GI50 (K-562 leukemia): 389 nM | TGI (K-562 leukemia): > 100 µM | GI50 (A498 renal): 526 nM | TGI (A498 renal): 8.83 µM | GI50 (786-0 renal): 338 nM | TGI (786-0 renal): > 100 µM | GI50 (SF-295 CNS): 625 nM | TGI (SF-295 CNS): 6.61 µM | GI50 (KM12 colon): 1520 nM | TGI (KM12 colon): > 100 µM | GI50 (HOP-92 NSCLC): 4430 nM | TGI (HOP-92 NSCLC): 69.4 µM

CC1(C)C(=O)C(=Cc2ccco2)C1=O
TGI (UO-31 renal): > 100 µM | TGI (MOLT-4 leukemia): > 100 µM | TGI (HT29 colon): > 100 µM | TGI (NCI-H460 lung): > 100 µM | TGI (K-562 leukemia): > 100 µM | TGI (A498 renal): > 100 µM | TGI (786-0 renal): > 100 µM | TGI (SF-295 CNS): > 100 µM | TGI (KM12 colon): > 100 µM | TGI (HOP-92 NSCLC): > 100 µM

C=C(CO)CC(/C=C(\C)CC/C=C(\C)CCl)OC(C)=O (stereo not given)
TGI (UO-31 renal): > 100 µM | TGI (MOLT-4 leukemia): > 100 µM | TGI (HT29 colon): > 100 µM | TGI (NCI-H460 lung): > 100 µM | TGI (K-562 leukemia): > 100 µM | TGI (A498 renal): > 100 µM | TGI (786-0 renal): > 100 µM | TGI (SF-295 CNS): > 100 µM | TGI (KM12 colon): > 100 µM | TGI (HOP-92 NSCLC): > 100 µM

COc1ccc2c(c1)CCc1c(CO)c(COC(=O)NC(C)C)n(C)c1-2
TGI (UO-31 renal): 19.6 µM | TGI (MOLT-4 leukemia): 8.57 µM | TGI (HT29 colon): 13.5 µM | TGI (NCI-H460 lung): 26.5 µM | TGI (K-562 leukemia): 10.5 µM | TGI (A498 renal): 77.5 µM | TGI (786-0 renal): > 100 µM | TGI (SF-295 CNS): 57.7 µM | TGI (KM12 colon): 28.2 µM | TGI (HOP-92 NSCLC): 22.5 µM

S=C(CSc1ccccc1)Nc1cccc2ccccc12
TGI (UO-31 renal): > 100 µM | TGI (MOLT-4 leukemia): 63.2 µM | TGI (HT29 colon): > 100 µM | TGI (NCI-H460 lung): > 100 µM | TGI (K-562 leukemia): > 100 µM | TGI (A498 renal): 71 µM | TGI (786-0 renal): > 100 µM | TGI (SF-295 CNS): 97.1 µM | TGI (KM12 colon): > 100 µM | TGI (HOP-92 NSCLC): > 100 µM

CCC[CH2][Sn]([CH2]CCC)([O]C(=O)c1cccc(F)c1F)[O]C(=O)c1cccc(F)c1F
GI50 (UO-31 renal): 1560 nM | TGI (UO-31 renal): 2.92 µM | GI50 (MOLT-4 leukemia): 0.336 µM | TGI (MOLT-4 leukemia): 2.04 µM | GI50 (HT29 colon): 1620 nM | TGI (HT29 colon): 2.99 µM | GI50 (NCI-H460 lung): 1.7 µM | TGI (NCI-H460 lung): 3.24 µM | GI50 (K-562 leukemia): 207 nM | TGI (K-562 leukemia): 1.08 µM | GI50 (A498 renal): 1150 nM | TGI (A498 renal): 2.39 µM | GI50 (786-0 renal): 1050 nM | TGI (786-0 renal): 2.22 µM | GI50 (SF-295 CNS): 1520 nM | TGI (SF-295 CNS): 2.85 µM | GI50 (KM12 colon): 1520 nM | TGI (KM12 colon): 2.85 µM | GI50 (HOP-92 NSCLC): 1300 nM | TGI (HOP-92 NSCLC): 2.57 µM

COc1cc2c3c(c1OC)C(=O)C=C3N(S(=O)(=O)c1ccc(C)cc1)CC2
TGI (UO-31 renal): > 100 µM | TGI (MOLT-4 leukemia): > 100 µM | TGI (HT29 colon): > 100 µM | TGI (NCI-H460 lung): > 100 µM | TGI (K-562 leukemia): > 100 µM | TGI (A498 renal): > 100 µM | TGI (786-0 renal): > 100 µM | TGI (SF-295 CNS): > 100 µM | TGI (KM12 colon): > 100 µM | TGI (HOP-92 NSCLC): > 100 µM

Cn1cc(C2=C(c3ccccc3C(F)(F)F)C(=O)NC2=O)c2ccccc21
GI50 (UO-31 renal): 7840 nM | TGI (UO-31 renal): > 25 µM | GI50 (MOLT-4 leukemia): 5.89 µM | TGI (MOLT-4 leukemia): > 22.6 µM | GI50 (HT29 colon): 6220 nM | TGI (HT29 colon): > 25 µM | GI50 (NCI-H460 lung): 9.18 µM | TGI (NCI-H460 lung): > 25 µM | GI50 (K-562 leukemia): 8820 nM | TGI (K-562 leukemia): > 25 µM | GI50 (A498 renal): 3900 nM | TGI (A498 renal): 17.5 µM | GI50 (786-0 renal): 9160 nM | TGI (786-0 renal): > 25 µM | GI50 (SF-295 CNS): 4330 nM | TGI (SF-295 CNS): > 17.2 µM | GI50 (KM12 colon): 6970 nM | TGI (KM12 colon): > 25 µM | GI50 (HOP-92 NSCLC): 17200 nM | TGI (HOP-92 NSCLC): > 25 µM

OC(COc1ccccc1)CN1CCCCC1 (stereo not given)
TGI (UO-31 renal): > 100 µM | TGI (MOLT-4 leukemia): > 100 µM | TGI (HT29 colon): > 100 µM | TGI (NCI-H460 lung): > 100 µM | TGI (K-562 leukemia): > 100 µM | TGI (A498 renal): > 100 µM | TGI (786-0 renal): > 100 µM | TGI (SF-295 CNS): > 100 µM | TGI (KM12 colon): > 100 µM | TGI (HOP-92 NSCLC): > 100 µM

COC(=O)/C(=C/c1ccc(OC)cc1)C(C(=O)O)=C1CCCCC1
TGI (UO-31 renal): > 100 µM | TGI (MOLT-4 leukemia): > 100 µM | TGI (HT29 colon): > 100 µM | TGI (NCI-H460 lung): > 100 µM | TGI (K-562 leukemia): > 100 µM | TGI (A498 renal): > 100 µM | TGI (786-0 renal): > 100 µM | TGI (SF-295 CNS): > 100 µM | TGI (KM12 colon): > 100 µM | TGI (HOP-92 NSCLC): > 100 µM

COc1cc(Nc2ncnc(Nc3ccc4c(n3)NC(=O)C(C)(C)O4)n2)cc(OC)c1OC
GI50 (UO-31 renal): 329 nM | TGI (UO-31 renal): > 100 µM | GI50 (MOLT-4 leukemia): 5.24 µM | TGI (MOLT-4 leukemia): > 100 µM | GI50 (HT29 colon): 803 nM | TGI (HT29 colon): > 100 µM | GI50 (NCI-H460 lung): 3.2 µM | TGI (NCI-H460 lung): > 100 µM | GI50 (K-562 leukemia): 3550 nM | TGI (K-562 leukemia): > 100 µM | GI50 (A498 renal): 31 nM | TGI (A498 renal): 0.29 µM | GI50 (786-0 renal): 492 nM | TGI (786-0 renal): > 22.6 µM | GI50 (SF-295 CNS): 754 nM | TGI (SF-295 CNS): > 100 µM | GI50 (KM12 colon): 395 nM | TGI (KM12 colon): > 100 µM | GI50 (HOP-92 NSCLC): 243 nM | TGI (HOP-92 NSCLC): 1.71 µM
